# According to ChEMBL document CHEMBL1201862, “PubChem BioAssay data set” (2004):
# Counter-ions that a name gives are not always drawn. The source made the active and inactive calls. Rule as the data show it, for most assays here: actives have a measured EC50 and inactives only a lower limit.
# Assays:
# [1] = molecular target: T1, Heat shock factor protein 1 (Mus musculus, UniProt P38532); assay: HSF1 potentiators in luciferase reporter cells, confirmation, cell-based, NIH3T3, luminescence, dose retest (AID 435004); type: functional;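 also: stress induced by proteasome inhibitor MG132 added 30 min after compound; luciferase reporter driven by HSF1 response element in NIH3T3 cells; actives raise luminescence as potentiators of the MG132 stress response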
# T1 sequence (P38532 whole entry): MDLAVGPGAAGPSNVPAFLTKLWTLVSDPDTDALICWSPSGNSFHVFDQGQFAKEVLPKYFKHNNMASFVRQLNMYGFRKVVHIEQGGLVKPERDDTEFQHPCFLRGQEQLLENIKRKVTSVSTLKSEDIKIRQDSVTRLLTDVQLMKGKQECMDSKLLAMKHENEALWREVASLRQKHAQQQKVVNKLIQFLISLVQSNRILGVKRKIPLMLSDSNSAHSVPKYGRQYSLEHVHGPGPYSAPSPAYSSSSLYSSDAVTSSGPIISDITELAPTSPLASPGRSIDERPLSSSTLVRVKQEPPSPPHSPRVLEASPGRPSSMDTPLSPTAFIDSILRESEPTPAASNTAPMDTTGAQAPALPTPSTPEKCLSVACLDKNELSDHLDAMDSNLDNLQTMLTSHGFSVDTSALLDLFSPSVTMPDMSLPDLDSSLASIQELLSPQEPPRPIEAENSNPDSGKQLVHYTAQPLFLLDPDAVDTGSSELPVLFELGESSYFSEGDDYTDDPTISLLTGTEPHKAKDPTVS
# [2] = molecular target: Luciferin 4-monooxygenase (Photinus pyralis, UniProt P08659); assay: firefly luciferase enzyme inhibitors, dose response, biochemical, luminescence (AID 1891)
# [3] = Luminescence Cell-Based Dose Confirmation HTS to Identify Inhibitors of Platelet Dense Granule Release. [Related pubchem assays: 1663 (Primary HTS), 1678 (Summary of Project)]; type: functional
# cells = type: functional
# [4] = microbe, parasite or virus in culture; type: functional; details: Mycobacterium tuberculosis
# [5] = growth suppression of PTEN-null colon cells, dose response, cell-based, HCT116 PTEN knockout (AID 1047); type: functional;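 also: HCT116 colon tumor cells with PTEN knocked out; cells exposed to compound for 60 hours before readout; potency for loss of cell viability measured by luminescence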
# [6] = growth suppression of beta-catenin-knockout colon cells, dose response, cell-based, HCT116, human colon tumor (AID 1045); type: functional;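 also: HCT116 colon tumor cells with beta catenin knocked out; cells exposed to compound for 60 hours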
# [7] = Luminescence Cell-Based Dose Retest to Confirm Inhibitors of Cancer Stem Cells. [Related pubchem assays (depositor defined):AID2717, AID2721]; type: functional; details: Homo sapiens
# INS1 = assay: beta cell apoptosis inhibitors, cytokine rescue, dose response, luminescence, retest (AID 449756); type: functional, cell-based; details: Rattus norvegicus;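 also: cell death triggered by IL-1 beta plus TNF-alpha plus IFN-gamma mixture; protective hits raise ATP signal compared with cytokine alone wells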
# [8] = inhibitors of firefly luciferase expression or activity, dose response, H4 neuroglioma cells, luminescence (AID 1990); type: functional, cell-based
# [9] = system: Streptococcus sp. 'group A'; assay: growth inhibition of control SK(-) GAS strain, dose response, counter-screen for streptokinase expression inhibitor project, luminescence, kanamycin, BacTiterGlo, confirmation (AID 1900); type: functional, organism-based
# [10] = Luminescence Cell-Based Dose Response HTS to Identify Inhibitors of 5'UTR Stem-Loop Driven Prion Protein mRNA Translation in H4 Neuroglioblastoma Cells. [Related pubchem assays: 1827 (Project Summary), 1813 (Primary HTS)]; type: functional
# [11] = inhibitors of SNCA 5'UTR-driven reporter translation, confirmation, H4 neuroglioma cells, luminescence (AID 1988); type: functional, cell-based
# Streptococcus = assay: Group A Streptococcus viability loss, dose response, counter-screen for streptokinase expression inhibitor project, luminescence, BacTiterGlo (AID 1915); type: functional, organism-based;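 also: potency for reduction of bacterial viability or growth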
# [12] = HEp-2 cell cytotoxicity, dose response, cytotoxicity control for RSV inhibitor project, HTS (AID 2410); type: functional; details: human respiratory syncytial virus
# [13] = molecular target: T2, RNA-binding protein pos-1 (Caenorhabditis elegans, UniProt G5EF15); assay: inhibitors of POS-1/mex-3 RNA binding, dose response, biochemical, fluorescence polarization (AID 1964);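 also: purified POS-1 fused to maltose binding protein made in E. coli; potency of compounds blocking POS-1 binding to fluorescent RNA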
# T2 sequence (G5EF15 whole entry): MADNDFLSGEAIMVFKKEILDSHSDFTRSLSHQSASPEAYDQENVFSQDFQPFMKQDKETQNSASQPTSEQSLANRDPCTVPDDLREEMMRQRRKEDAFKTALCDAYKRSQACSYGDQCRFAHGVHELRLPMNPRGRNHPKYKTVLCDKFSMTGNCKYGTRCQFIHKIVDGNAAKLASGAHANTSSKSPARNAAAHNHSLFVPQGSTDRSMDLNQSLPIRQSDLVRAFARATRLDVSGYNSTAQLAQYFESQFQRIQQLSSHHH
# [14] = molecular target: T3, Corticotropin-releasing factor receptor 2/Corticotropin-releasing factor-binding protein (Homo sapiens, UniProt P24387+Q13324); assay: activators of CRF receptor 2 with binding protein – uHTS hits, confirmation (AID 602473); type: functional; details: read-out: EC50_Mean
# T3 sequence (Q13324 whole entry): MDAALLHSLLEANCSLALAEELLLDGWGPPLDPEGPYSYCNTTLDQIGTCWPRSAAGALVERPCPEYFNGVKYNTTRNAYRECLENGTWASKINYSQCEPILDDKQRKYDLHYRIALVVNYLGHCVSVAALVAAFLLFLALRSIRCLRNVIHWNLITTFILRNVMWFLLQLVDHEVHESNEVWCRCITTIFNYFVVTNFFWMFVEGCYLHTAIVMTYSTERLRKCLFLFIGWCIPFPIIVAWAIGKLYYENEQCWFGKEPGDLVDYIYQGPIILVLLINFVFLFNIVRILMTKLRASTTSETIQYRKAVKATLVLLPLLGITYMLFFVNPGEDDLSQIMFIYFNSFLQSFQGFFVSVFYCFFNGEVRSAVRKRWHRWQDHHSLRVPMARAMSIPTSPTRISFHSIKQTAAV
# T3 sequence (P24387 whole entry): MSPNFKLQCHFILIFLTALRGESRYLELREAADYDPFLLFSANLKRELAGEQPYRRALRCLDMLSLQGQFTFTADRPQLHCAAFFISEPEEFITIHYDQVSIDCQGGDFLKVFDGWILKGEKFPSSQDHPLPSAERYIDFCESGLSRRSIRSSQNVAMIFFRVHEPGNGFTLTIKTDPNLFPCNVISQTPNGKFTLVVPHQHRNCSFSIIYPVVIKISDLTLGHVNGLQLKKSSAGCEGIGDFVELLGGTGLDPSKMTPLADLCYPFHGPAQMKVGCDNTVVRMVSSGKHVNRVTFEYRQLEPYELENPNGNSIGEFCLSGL
# [15] = Luminescence Cell-Based Dose Confirmation HTS to Identify Activators of 5'UTR Stem-Loop Driven Alpha-Synuclein mRNA Translation in H4 Neuroglioblastoma Cells. [Related pubchem assays: 1829 (Project Summary), 1814 (Primary HTS)]; type: functional
# [16] = Luminescence Cell-Based Dose Response HTS to Identify Activators of Luciferase Translation or Activity in H4 […] Cells. [Related pubchem assays: 1829 (Project Summary), 1814 (Primary HTS)]; type: functional
# H4 = assay: Luminescence Cell-Based Dose Response HTS to Identify Activators of 5'UTR Stem-Loop Driven Prion Protein mRNA Translation in H4 Neuroglioblastoma Cells. [Related pubchem assays: 1829 (Project Summary), 1814 (Primary HTS)]; type: functional; details: Homo sapiens
# Luciferin 4-monooxygenase, sequence (P08659 whole entry): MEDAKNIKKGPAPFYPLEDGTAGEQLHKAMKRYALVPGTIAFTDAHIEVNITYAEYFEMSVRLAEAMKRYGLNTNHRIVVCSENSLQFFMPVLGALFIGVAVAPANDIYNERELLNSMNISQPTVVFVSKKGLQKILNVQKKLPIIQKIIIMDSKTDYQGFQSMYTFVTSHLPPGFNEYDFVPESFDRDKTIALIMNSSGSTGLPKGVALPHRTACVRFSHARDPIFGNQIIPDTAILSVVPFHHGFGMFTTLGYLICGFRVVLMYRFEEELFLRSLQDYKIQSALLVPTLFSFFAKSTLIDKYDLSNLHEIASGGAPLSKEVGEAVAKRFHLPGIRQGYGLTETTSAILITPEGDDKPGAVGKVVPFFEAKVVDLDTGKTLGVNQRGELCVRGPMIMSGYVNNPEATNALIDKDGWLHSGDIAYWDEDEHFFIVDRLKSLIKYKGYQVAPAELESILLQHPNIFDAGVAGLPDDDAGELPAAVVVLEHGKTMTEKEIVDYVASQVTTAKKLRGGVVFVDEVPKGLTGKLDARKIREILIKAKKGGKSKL
compound,measurement,setting,value
COc1ccc(C2NC(=O)CCC2[N+](=O)[O-])c(OC)c1 (stereo not given),EC50,[1],> 260 µM (inactive)
Cc1ccccc1-n1c(=O)cc(N2CCN(C(=O)c3ccco3)CC2)[nH]c1=O,EC50,[2],> 112 µM (not active)
same,EC50,[3],> 112 µM (not active)
CC(/C=C/c1cccc([N+](=O)[O-])c1)=N\NC(=O)c1ccncc1,IC50,cells,0.94 µM (active)
CCO[C@H]1OC(C(=O)NCc2nc3ccccc3[nH]2)=C[C@@H](c2csc3ccccc23)[C@@H]1CCCO,CC50,[4],> 40 µM (active)
CC(C)Cc1cc(C(=O)Nc2ccc(F)cc2F)no1,IC50,cells,12 µM (active)
CCn1nnc(NC(=O)c2ccc(-c3ccc(Cl)cc3)o2)n1,IC50,cells,> 50 µM (active)
CCc1cc2c(=O)c(-c3cnn(-c4ccccc4)c3)c(C)oc2cc1OCC(=O)Nc1ccc(F)c(F)c1,EC50,[5],4.93 µM (active)
same,EC50,[6],4.88 µM (active)
Nc1ccc2cc(Br)ccc2c1,IC50,cells,25.7 µM (active)
CCC(=O)NCCc1nc2ccccc2n1Cc1ccccc1,EC50,[2],> 112 µM (not active)
same,EC50,[3],> 112 µM (not active)
CCc1cc(C(c2ccccc2OC)N2CCOCC2)c(NC(=O)c2ccccc2)s1 (stereo not given),EC50,[1],7.34 µM (active)
NC(=O)COc1ccccc1,EC50,[1],> 260 µM (inactive)
C=CCN(C(=O)CCC(=O)O)C1CC(=O)N(c2ccc(OC)cc2)C1=O (stereo not given),EC50,[2],> 112 µM (not active)
same,EC50,[3],> 112 µM (not active)
COc1cc2[nH]c(=O)n(CCCCCC(=O)N3CC=C(c4ccccc4)CC3)c(=O)c2cc1OC,EC50,[5],21.9 µM (active)
same,EC50,[6],27.9 µM (active)
O=S(=O)(NCCc1cn2ccccc2n1)c1ccc2c(c1)CCCC2,EC50,[2],> 112 µM (not active)
same,EC50,[3],> 112 µM (not active)
O=C(CCNC(=O)C1CCN(S(=O)(=O)c2ccc(F)cc2)CC1)NCc1ccc(Cl)cc1,EC50,[2],> 112 µM (not active)
same,EC50,[3],> 112 µM (not active)
CCC(=O)Oc1ccc(C(=O)Nc2ccc3c(c2)C(=O)N(C2CCCCC2)C3=O)cc1,CC50,[4],39.9 µM (active)
Nc1nnc(SCc2c(F)cccc2Cl)s1,EC50,[1],> 260 µM (inactive)
O=C(O)c1cccc(S(=O)(=O)N2CCC(n3nnc4cc(C(F)(F)F)ccc43)CC2)c1,EC50,[1],> 260 µM (inactive)
COc1cc(SC#N)ccc1/N=C/c1c(C)[nH]n(-c2ccc(C)c(C)c2)c1=O,EC50,[5],8.81 µM (active)
same,EC50,[6],8.18 µM (active)
same,AC50,[7],1.41 µM (active)
same,AC50,INS1,4.24 µM (active)
Cc1c(N=N/C(C#N)=C(\O)c2ccc(Cl)cc2)c(=O)n(-c2ccccc2)n1C,EC50,[8],9.5 µM (active)
same,EC50,[9],0.528 µM (active)
same,EC50,[10],9.48 µM (active)
same,EC50,[11],8.7 µM (active)
same,EC50,Streptococcus,9.3 µM (active)
same,AC50,INS1,2.08 µM (active)
CN(Cc1ccco1)c1ncnc2ccc(-c3ccc4c(ccn4C)c3)cc12,CC50,[4],15.4 µM (active)
same,AC50,[7],0.499 µM (active)
COC(=O)CC1C(=O)NCCN1C(=O)c1ccc(S(=O)(=O)N2CCOCC2)cc1 (stereo not given),EC50,[1],> 260 µM (inactive)
CCOc1ccccc1C(=O)Nc1cnc(O)nc1O,CC50,[12],> 50 µM (active)
same,EC50,[10],> 120 µM (not active)
same,EC50,[11],> 120 µM (not active)
same,EC50,[2],> 112 µM (not active)
same,EC50,[3],0.125 µM (active)
COc1cc(S(=O)(=O)Nc2ccc(C)cc2)ccc1N/C=C1\C(=O)N(C)C(=O)C(C#N)=C1C,EC50,[13],2.83 µM (active)
same,EC50,[14],> 53 µM (inactive)
O=C(N/N=C/C=C/c1cccc([N+](=O)[O-])c1)c1ccncc1,IC50,cells,34.9 µM (active)
Nc1cccc(-c2nc3ccccc3s2)c1,EC50,[2],3.81 µM (active)
same,EC50,[3],7.77 µM (active)
CN(C)CCCN1c2ccccc2CCc2ccc(Cl)cc21 [CLOMIPRAMINE HYDROCHLORIDE],EC50,[5],9.89 µM (active)
same,EC50,[6],10.3 µM (active)
O=C(Nn1cnnc1)c1ccccc1CCc1ccccc1,EC50,[2],> 112 µM (not active)
same,EC50,[3],> 112 µM (not active)
Cc1cc2oc(=O)cc(CSc3nc(N)cc(N)n3)c2cc1C,EC50,[1],> 260 µM (inactive)
COc1ccc(C(=O)C2CCCN(Cc3ccc(C)s3)C2)c(OC)c1 (stereo not given),EC50,[1],> 260 µM (inactive)
CCOc1ccc(NC(=O)C(=O)NCCN2CCN(C(=O)c3ccc(C)cc3)CC2)cc1,EC50,[8],14.7 µM (active)
same,EC50,[10],64.8 µM (active)
same,EC50,[11],63.7 µM (active)
CC(C)(C)OC(=O)NCCCCCc1nnc(SCc2ccc(F)cc2)o1,CC50,[4],> 40 µM (active)
Cc1cc(/C=C2\C(=O)NC(=O)N(c3ccc(Br)cc3)C2=O)c(C)n1C,EC50,[13],59.7 µM (active)
CSC1=NC(/C=C/c2ccc(Cl)cc2)=CC(C)(C)N1,EC50,[15],14.3 µM (active)
same,EC50,[16],> 120 µM (not active)
same,EC50,H4,> 120 µM (not active)
same,CC50,[4],11.1 µM (active)
COc1cccc(-n2c(N)c(C(=O)Nc3c(C)n(C)n(-c4ccccc4)c3=O)c3nc4ccccc4nc32)c1,EC50,[2],> 112 µM (not active)
same,EC50,[3],> 112 µM (not active)
